Measured values taken from patent publication US20210113496A1, “Methods of Treating Excitotoxicity Disorders” (HORIZON ORPHAN LLC, priority 2018, published 2021).

Key:
[1] = system: ST HDH Q111/111 striatal cells; experiment: Permeability/Cell Death assay based on CellTox Green (membrane integrity)
Description: (§1) All cell culture methods were carried out under sterile conditions in a class II laminar flow cabinet. The immortalized cell lines, ST HDH Q111/111 and ST HDH Q7/7 were derived from striatal neurons from HdhQ111/Q111 and HdhQ7/Q7 mice (expressing 111 and 7 glutamine repeats, respectively) and were purchased from Coriell. Cells were cultured in Dulbecco's Modified Eagle Medium (DMEM) supplemented with 10% FBS, 4 mM L-alanyl-L-glutamine (Corning Glutagro), and 400 μg/mL G418. Cells were grown at 33° C. in a 5% CO2 incubator. All experiments used cells with passages lower than 14.
(§2) Cells were plated at a density of 8×10^3 or 1.2×10^3 cells/well (CellTox or XTT, respectively) in sterile 96 well plates (100 uL). Cells were allowed to adhere overnight at 33° C. in a 5% CO2 incubator. Test compounds were applied and left to incubate for an additional 24 hours. Membrane integrity was assessed by staining with CellTox Green (Promega) reagent following manufacturer guidelines for the Endpoint (2×) Method. Viability was assessed using an XTT Cell Proliferation Kit (ATCC). Before adding XTT reagent, wells were aspirated and washed with serum free media. 50 uL of XTT reagent and 100 uL serum free media were then added to each well and incubated for 2-4 hours before acquiring data. […]

[2] = system: HDH Q111/111 cells; experiment: XTT Cell Proliferation assay (viability); conditions: FIGS. 2A and 2B
Description: as §1, §2

[3] = system: striatal cells; experiment: Live cell count after 24 or 48 hours of culture with glutamate (Cellometer); type: cell-based, mice; conditions: cells cultured with glutamate, cysteamine administered 24 hours later; FIG. 3
Description: All experiments used cells with passages lower than 14. Cells were seeded into sterile 12 well plates at an appropriate density (80-120 k cells/well) to reach 50-75% confluence after 24 hours. […] Thereafter, wells were treated with test compounds. Following incubation with the compounds for 24 or 48 hours, wells were rinsed with DPBS, and detached using 500 uL Accutase (EMD). Pellets were rinsed and re-suspended in 250 uL DPBS and live cells were counted on a Cellometer Auto 2000.

NCCS [cysteamine, 2-aminoethanethiol]
number of dead cells (CellTox Green) ([1]; HDH cells cultured with cysteamine and BSO, compared to BSO alone): reduced the number of dead cells | sensitivity of cells to toxicity induced by glutamate and/or the test agents ([1]; cysteamine in combination with GFPB (5 mM), and NMDA (500 uM)+4CPG (250 uM) or BSO (250 uM), FIG. 1B): able to reduce sensitivity of cells to toxicity | rescue of glutamate-induced excitotoxicity (XTT Cell Proliferation) ([2]; cysteamine 25 μM in culture with glutamate): able to rescue glutamate-induced excitotoxicity | rescue of glutamate-induced excitotoxicity (XTT Cell Proliferation) ([2]; cysteamine 75 μM in culture with glutamate): able to rescue glutamate-induced excitotoxicity | cell viability [3]: positive effects of cysteamine on the cell viability was still observed

N[C@@H](CCC(=O)O)C(=O)O [glutamate, L-Glutamic acid]
cytotoxicity (Cell Tox Green) ([1]; 5 mM glutamate given alone, 24 hours, FIG. 1A): toxic to cells | glutamate excitotoxicity (XTT Cell Proliferation) ([2]; glutamate in culture, HDH Q111/111 cells): experience glutamate excitotoxicity
